Biological target: CYP2C19 (Homo sapiens, UniProt P33261)
Sequence (P33261 whole entry): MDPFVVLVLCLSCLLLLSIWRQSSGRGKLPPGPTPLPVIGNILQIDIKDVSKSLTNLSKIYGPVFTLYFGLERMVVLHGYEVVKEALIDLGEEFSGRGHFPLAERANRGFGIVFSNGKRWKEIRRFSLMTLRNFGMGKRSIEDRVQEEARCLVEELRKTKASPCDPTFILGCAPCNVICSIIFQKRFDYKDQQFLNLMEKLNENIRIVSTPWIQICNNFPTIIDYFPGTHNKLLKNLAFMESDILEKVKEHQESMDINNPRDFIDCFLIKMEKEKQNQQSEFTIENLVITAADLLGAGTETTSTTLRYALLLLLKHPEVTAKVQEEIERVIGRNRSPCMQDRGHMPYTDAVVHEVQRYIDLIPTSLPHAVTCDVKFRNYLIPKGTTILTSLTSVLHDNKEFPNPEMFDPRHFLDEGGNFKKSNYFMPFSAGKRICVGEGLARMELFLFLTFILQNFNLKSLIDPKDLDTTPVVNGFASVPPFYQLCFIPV

Work on `O=C(Nc1nnc(-c2ccc(F)cc2)o1)c1ccc(Oc2ccccc2)nc1` [MBX-4237] yielded an inhibition at 10 µM of 3%.

From patent publication US11505533B2, “Metabolically stable N-acylaminooxadiazoles useful as antibacterial agents” (MICROBIOTIX, INC., priority 2017, dated 2022)
